# Test results from ChEMBL document CHEMBL1201862, “PubChem BioAssay data set” (2004).
#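 Values below derive from 48-hour exposures of cells grown in 96-well plates, with endpoints linearly interpolated between the two concentrations bracketing the appropriate inhibition level. At the GI50, growth is halved.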 Activity calls are given as the source filed them. No stated cut-off is given here; in the data, active = GI50 up to about 1.1 µM and inactive = higher.
# Tests used:
# Assay in all cases: NCI tumour cell line growth inhibition, 48 h
# [1] = system: HT-29
# [2] = system: TK-10
# [3] = system: CAKI-1
# [4] = system: SN12C
# [5] = system: SR
# [6] = system: SK-MEL-28
# [7] = system: MDA-MB-231
# [8] = system: NCI-H226
# [9] = system: EKVX
# [10] = system: HL-60
# [11] = system: NCI-H460
# [12] = system: A549
# [13] = system: OVCAR-4
# [14] = system: RXF 393
# [15] = system: HCT-15
# [16] = system: SK-MEL-5
# [17] = system: UACC-62
# [18] = system: OVCAR-8
# [19] = system: BT-549
# [20] = system: IGROV-1
SMILES,GI50 [1],GI50 [2],GI50 [3],GI50 [4],GI50 [5],GI50 [6],GI50 [7],GI50 [8],GI50 [9],GI50 [10],GI50 [11],GI50 [12],GI50 [13],GI50 [14],GI50 [15],GI50 [16],GI50 [17],GI50 [18],GI50 [19],GI50 [20]
CC(C)(Oc1ccc(Cl)cc1)C(=O)N(C(=O)N1CCN(c2ccccc2)CC1)c1ccccc1,6.25 µM (inactive),68.5 µM (inactive),7.87 µM (inactive),42.3 µM (inactive),3.76 µM (inactive),> 100 µM (inactive),> 100 µM (inactive),8.09 µM (inactive),5.83 µM (inactive),4.16 µM (inactive),3.75 µM (inactive),7.46 µM (inactive),8.49 µM (inactive),> 100 µM (inactive),6.61 µM,4.68 µM (inactive),5.83 µM (inactive),> 100 µM (inactive),> 100 µM (inactive),–
O=C(O)[C@@H]1C2CC([C@@H]1C(=O)O)[C@H](N1C(=O)CCC1=O)[C@@H]2Br (some centres not stated),> 100 µM (inactive),> 100 µM (inactive),–,> 100 µM (inactive),> 100 µM (inactive),> 100 µM (inactive),> 100 µM (inactive),> 100 µM (inactive),> 100 µM (inactive),> 100 µM (inactive),> 100 µM (inactive),> 100 µM (inactive),> 100 µM (inactive),> 100 µM (inactive),> 100 µM,> 100 µM (inactive),> 100 µM (inactive),> 100 µM (inactive),> 100 µM (inactive),> 100 µM (inactive)
N#Cc1c(-c2ccc(Cl)cc2)c(C#N)c(=O)n(NS(=O)(=O)c2ccccc2)c1S,–,18.5 µM (inactive),26.2 µM (inactive),25.2 µM (inactive),17 µM (inactive),–,26.7 µM (inactive),30.3 µM (inactive),32.6 µM (inactive),16.6 µM (inactive),18.8 µM (inactive),29.4 µM (inactive),56.6 µM (inactive),35.8 µM (inactive),21.9 µM,14.2 µM (inactive),19.1 µM (inactive),19.9 µM (inactive),25.9 µM (inactive),21.6 µM (inactive)
Nc1c(Br)cc(-c2nc3ccccc3s2)cc1Br,> 100 µM (inactive),6.85 µM (inactive),> 100 µM (inactive),> 100 µM (inactive),> 100 µM (inactive),> 100 µM (inactive),> 100 µM (inactive),> 100 µM (inactive),> 100 µM (inactive),> 100 µM (inactive),> 100 µM (inactive),> 100 µM (inactive),–,> 100 µM (inactive),> 100 µM,> 100 µM (inactive),> 100 µM (inactive),> 100 µM (inactive),> 100 µM (inactive),5.12 µM (inactive)
Cc1nnc(S(=O)(=O)c2ccc(/N=N/c3c(N)nc(N)nc3N)cc2)s1,> 100 µM (inactive),> 100 µM (inactive),> 100 µM (inactive),> 100 µM (inactive),> 100 µM (inactive),> 100 µM (inactive),> 100 µM (inactive),> 100 µM (inactive),> 100 µM (inactive),33.4 µM (inactive),> 100 µM (inactive),> 100 µM (inactive),> 100 µM (inactive),> 100 µM (inactive),> 100 µM,> 100 µM (inactive),> 100 µM (inactive),> 100 µM (inactive),> 100 µM (inactive),> 100 µM (inactive)
N#Cc1[nH]c(=O)n(-c2ccc(Cl)cc2)c1N,> 10 µM (inactive),> 10 µM (inactive),0.00637 µM (active),> 10 µM (inactive),> 10 µM (inactive),> 10 µM (inactive),> 10 µM (inactive),> 10 µM (inactive),> 10 µM (inactive),> 10 µM (inactive),> 10 µM (inactive),> 10 µM (inactive),> 10 µM (inactive),> 10 µM (inactive),> 10 µM,> 10 µM (inactive),> 10 µM (inactive),> 10 µM (inactive),> 10 µM (inactive),> 10 µM (inactive)
CC(C)c1ccc(/C(C(=O)O)=C(\O)C(=O)O)cc1,> 100 µM (inactive),> 100 µM (inactive),> 100 µM (inactive),> 100 µM (inactive),> 100 µM (inactive),> 100 µM (inactive),> 100 µM (inactive),> 100 µM (inactive),> 100 µM (inactive),> 100 µM (inactive),> 100 µM (inactive),> 100 µM (inactive),> 100 µM (inactive),> 100 µM (inactive),> 100 µM,> 100 µM (inactive),> 100 µM (inactive),> 100 µM (inactive),> 100 µM (inactive),> 100 µM (inactive)
CC(C)=CCCC(C)C1=C(O)C(=O)C(C)=CC1=O (configuration not stated),16.3 µM (inactive),7.73 µM (inactive),5.89 µM (inactive),14.7 µM (inactive),1.29 µM (inactive),4.24 µM (inactive),2.98 µM (inactive),20.8 µM (inactive),5.94 µM (inactive),0.332 µM (active),27.7 µM (inactive),45.5 µM (inactive),6.41 µM (inactive),4.74 µM (inactive),2.23 µM,11.6 µM (inactive),13.4 µM (inactive),18.1 µM (inactive),14.6 µM (inactive),15.6 µM (inactive)
CC(C)=C1CCC(CN2CCOCC2)C1=O (configuration not stated),8.65 µM (inactive),6.21 µM (inactive),0.348 µM (active),8.59 µM (inactive),3.57 µM (inactive),14.9 µM (inactive),17.4 µM (inactive),21.2 µM (inactive),17.7 µM (inactive),4.12 µM (inactive),27.2 µM (inactive),20.4 µM (inactive),8.18 µM (inactive),2.07 µM (inactive),5.22 µM,15.9 µM (inactive),17 µM (inactive),7.55 µM (inactive),17.3 µM (inactive),20.3 µM (inactive)
O=C(NCCc1ccccn1)c1ccc2cc(C(=O)N3CC(CCl)c4ccc([N+](=O)[O-])cc43)[nH]c2c1 (configuration not stated),> 100 µM (inactive),20.7 µM (inactive),> 24.2 µM (inactive),> 65 µM (inactive),> 100 µM (inactive),> 100 µM (inactive),> 33.1 µM (inactive),> 58.9 µM (inactive),47.4 µM (inactive),> 100 µM (inactive),22.7 µM (inactive),> 72.9 µM (inactive),4.31 µM (inactive),7.66 µM (inactive),77.4 µM,> 61.5 µM (inactive),8.99 µM (inactive),9.12 µM (inactive),> 100 µM (inactive),53.6 µM (inactive)
CCOC(=O)N/N=C/C1=NN(C(=O)OCC)[S+]([O-])C1C (configuration not stated),> 100 µM (inactive),> 100 µM (inactive),> 100 µM (inactive),> 100 µM (inactive),> 100 µM (inactive),> 100 µM (inactive),> 100 µM (inactive),> 100 µM (inactive),> 100 µM (inactive),> 100 µM (inactive),96.8 µM (inactive),> 100 µM (inactive),> 100 µM (inactive),> 100 µM (inactive),> 100 µM,> 100 µM (inactive),> 100 µM (inactive),> 100 µM (inactive),> 100 µM (inactive),> 100 µM (inactive)
COc1ccc(C(=O)c2sc(Nc3ccccc3)nc2N)cc1,> 100 µM (inactive),> 55.7 µM (inactive),–,> 60.5 µM (inactive),0.778 µM (active),> 100 µM (inactive),> 75.7 µM (inactive),> 100 µM (inactive),60.5 µM (inactive),2.2 µM (inactive),> 100 µM (inactive),24.2 µM (inactive),10.7 µM (inactive),13.4 µM (inactive),3.84 µM,> 100 µM (inactive),> 100 µM (inactive),29 µM (inactive),> 100 µM (inactive),14.3 µM (inactive)
O=C(O)/C=C\C(=O)Nn1c(Cc2ccc(Cl)cc2)n[nH]c1=O,> 100 µM (inactive),> 100 µM (inactive),> 100 µM (inactive),> 100 µM (inactive),> 100 µM (inactive),–,> 100 µM (inactive),> 100 µM (inactive),> 100 µM (inactive),> 100 µM (inactive),> 100 µM (inactive),> 100 µM (inactive),> 100 µM (inactive),> 100 µM (inactive),> 100 µM,> 100 µM (inactive),> 100 µM (inactive),> 100 µM (inactive),> 100 µM (inactive),> 100 µM (inactive)
COc1ccc(C2N(c3ccc(C)c(N=C=O)c3)C(=O)N3C(c4ccc(OC)cc4)N(c4ccc(C)c(N=C=O)c4)C(=O)N23)cc1 (configuration not stated),> 100 µM (inactive),> 100 µM (inactive),> 100 µM (inactive),> 100 µM (inactive),> 100 µM (inactive),> 100 µM (inactive),> 100 µM (inactive),> 100 µM (inactive),> 100 µM (inactive),> 100 µM (inactive),> 100 µM (inactive),> 100 µM (inactive),> 100 µM (inactive),> 100 µM (inactive),> 100 µM,> 100 µM (inactive),–,> 100 µM (inactive),> 100 µM (inactive),38.9 µM (inactive)
